Earlier results as cited in patent US9982005B2, “Macrolides and methods of their preparation and use” (President and Fellows of Harvard College, priority 2013, dated 2018).

System: panels of Gram-positive bacteria
Settings: fluorine atom at position C2; cited from earlier work

Question: For CC[C@H]1OC(=O)[C@@](C)(F)C(=O)[C@H](C)[C@@H](O[C@@H]2O[C@H](C)C[C@H](N(C)C)[C@H]2O)[C@](C)(OC)C[C@@H](C)C(=O)[C@H](C)[C@H]2N(CCCCn3cc(-c4cccc(N)c4)nn3)C(=O)O[C@]12C [solithromycin], which “increase in activity versus the non-fluorinated molecule” value is on record?
Answer: 4- to 16 fold
